Patent publication US9061984B2 (University of Louisville Research Foundation, Inc., priority 2008, dated 2015)
Where two headings read alike, the source gives them in different places.

Columns and labels:
peritoneal macrophages = test: Toxicity to peritoneal macrophages (Trypan Blue count); assay type: cell-based, BALB/C mouse
L. amazonensis = conditions: for Lesion diameter / Reduction of parasite burden After 4 weeks / Reduction of parasite burden After 7 weeks: compounds 5 mg/kg/day, Glucantime 33 mg/kg/day, intralesional; for cutaneous toxicity: at the tested doses (5 mg/kg/day intralesional)
[1] = system: axenic amastigotes of L. amazonensis (strain MHOM/BR/76/LTB-012); test: microbe, parasite or virus in culture; conditions: Leishmania amazonensis, 72 h, read-out: IC50 L. amazonensis
L. amazonensis Lma CL1 = test: Activity against macrophages infected with Leishmania amastigotes; conditions: 48 h, read-out: IC50 L. amazonensis Lma CL1
Experimental: (§1) A cloned line of Leishmania amazonensis(strain MHOM/BR/76/LTB-012) was used in all experiments. Axenically grown amastigote forms of L. amazonensis were maintained by weekly subpassages in MAA/20 medium (Sereno and Lemesre, Antimicrobial Agents and Chemotherapy 41, 972-976 (1997)) at 32±1° C. in 25 cm^2 tissue culture flasks. L. peruviana (strain MHOM/PE/LCA08) and L. braziliensis (strainMHOM/PE/PER006) were maintained in the promastigote stage in a biphasic medium (blood agar with 0.89% NaCl, pH 7.4) at 24° C., with sub-passage every 3 to 4 days. Promastigotes (5×10^6 parasites) were then transferred to 25 cm2 tissue culture flasks containing 5 ml of M199 medium supplemented with 10% foetal bovine serum (FBS), pH 7.4. After 4 days, exponential phase promastigotes were centrifuged for 10 minutes at 1500 g and 4° C. The supernatant was discarded and replaced by fresh M199 medium supplemented with 20% FBS, pH 5.5. Axenic amastigotes transformation was then induced by increasing the temperature to 34° C. and incubating for 96 h (Teixeira et al., Parasitology Research 88, 963-968 (2002)).
(§2) Extracted cells were immediately deposited on sterile 4×4 mm cover glasses and placed in each well of a 96-well plate. Plates were incubated for 24 h at 37° C., 5% CO2 to allow cell adhesion (Castillo et al, Journal of Ethnopharmacology 112, 410-414 (2007)). Pre-warmed complete M199 medium was used twice to remove non-adherent cells. A neutral red method (Fautz et al., Mutation Research 253, 173-179 (1991)) was employed to determine cell concentration. Approximately 7×10^4 viable cells were deposited in each well for adhesion.
(§3) Infection of macrophages by amastigotes was determined as follows. […] Twelve hours after infection, a solution of the compounds to be tested was added to the cultures at various concentrations and maintained at 37° C. in 5% CO2 for a further forty-eight hours more. The plates were fixed with methanol and stained with 10% Giemsa stain. The percentage of infected macrophages was determined microscopically at 100 times magnification. The number of intracellular amastigotes was determined in 300 cells. Following Delorenzi et al. Antimicrobial Agents and Chemotherapy, 45, 1349-1354 (2001)) the percentage of infection rate (% IR) of each culture was calculated as follows: % IR=100−(infection rate of the treated culture/infection rate of the untreated culture)×100.
(§4) All experiments were performed in triplicate. ANOVA was used to test for statistical significance of differences (Epi-Info, Statview student program). The total parasite burden was calculated as a mean number of amastigotes per cells multiplied by the number of infected macrophages.

L. braziliensis PER006 = test: as above; conditions: 48 h, read-out: IC50 L. braziliensis PER006
Experimental: as §1, §2, §3, §4

L. peruviana LCA08 = test: as above; conditions: 48 h, read-out: IC50 L. peruviana LCA08
Experimental: as §1, §2, §3, §4

[2] = system: axenic amastigotes of L. amazonensis (strain MHOM/BR/76/LTB-012)
[3] = Mus musculus, Peritoneal macrophage, 48 h, Table 7, read-out: IC50 Macrophage
[4] = Leishmania amazonensis, Macrophage
[5] = Leishmania braziliensis, Macrophage
[6] = Leishmania peruviana, Macrophage

Row | Structure (SMILES) | IC50 (peritoneal macrophages; [3]) [µM] | Lesion diameter (L. amazonensis) [mm] | Reduction of parasite burden After 4 weeks (L. amazonensis) [%] | Reduction of parasite burden After 7 weeks (L. amazonensis) [%] | IC50 [1] [µM] | IC50 (L. amazonensis Lma CL1; [4]) [µM] | IC50 (L. braziliensis PER006; [5]) [µM] | IC50 (L. peruviana LCA08; [6]) [µM] | cutaneous toxicity (L. amazonensis) | IC50 (peritoneal macrophages) [µM] | IC50 (peritoneal macrophages; 48 h, Table 7, read-out: IC50 Macrophage) [µM] | IC50 [2] [µM] | IC50 ([2]; read-out: IC50 L. amazonensis, axenic amastigotes, 72 h, Table 7) [µM] | IC50 ([2]; read-out: L. amazonensis IC50, Table 8b) [µM] | IC50 (L. amazonensis Lma CL1; infected macrophages) [µM] | IC50 (L. braziliensis PER006; infected macrophages) [µM] | IC50 (L. peruviana LCA08; infected macrophages) [µM]
1 | COCOc1cc(OC)c(C(=O)/C=C/c2ccc(OC)cc2)c(OCOC)c1 [Compound I-44] | > 250 | 4.7 | 11 | 17 | 1.3 | 12.1 | 5.15 | 111 |  |  |  |  |  |  |  |  | 
2 | COc1cc(O)cc(O)c1C(=O)/C=C/c1ccco1 [Compound I-43, (2E)-1-(2,4-Dihydroxy-6-methoxyphenyl)-3-(2-furanyl)-2-propen-1-one] | 384 |  |  |  | 4.6 | 17 | 30.4 | 34.2 |  |  |  |  |  |  |  |  | 
3 | COc1ccc(/C=C/C(=O)c2c(O)cc(O)cc2OC)c(OC)c1 [Compound I-36, (2E)-1-(2,4-Dihydroxy-6-methoxyphenyl)-3-(2,4-dimethoxyphenyl)-2-propen-1-one] | > 300 |  |  |  | 6.4 | 28.5 | 237 | 290 |  |  |  |  |  |  |  |  | 
4 | COCOc1cc(OC)c(C(=O)/C=C/c2ccc3c(c2)OCO3)c(OCOC)c1 [Compound I-45] | 143 | 4.6 | 92 | 35 | 11.7 | 23.9 | 17.2 | 34.8 | did not exhibit any cutaneous toxicity |  |  |  |  |  |  |  | 
5 | C[C@@H]1[C@H](O)[C@@H](C)/C=C/C=C/C=C/C=C/C=C/C=C/C=C/[C@H](O[C@@H]2O[C@H](C)[C@@H](O)[C@H](N)[C@@H]2O)C[C@@H]2O[C@](O)(C[C@@H](O)C[C@@H](O)[C@H](O)CC[C@@H](O)C[C@@H](O)CC(=O)O[C@H]1C)C[C@H](O)[C@H]2C(=O)O [Amphotericin B, reference compound] |  |  |  |  |  |  |  |  |  | 5.4 | 5.3 | 0.14 | 0.1 | 0.1 | 0.4 | 0.1 | 0.1
6 | COCOc1cc(O)c(C(=O)/C=C/c2cc(OC)c(OC)c(OC)c2)c(OC)c1 [Compound I-46] | 132 | 5.1 | 74 | 41 | 6.2 | 28.7 | 13.1 | 19.3 | did not exhibit any cutaneous toxicity |  |  |  |  |  |  |  | 
